Key:
[1] = test system: ENA polypeptide antibodies (anti-Sm, anti-Rib, anti-ssA, anti-ssB); assay: Serologic detection of ENA polypeptide antibodies by immunoblotting in serum of UV + LPS lupus model mice; type: in vivo, BALB/c mice; design: key to Anti-Rib: (+): positive; (−): negative; key to Anti-Sm / Anti-ssA / Anti-ssB: (+): positive; (−): negative; (++++): intenseintensity; (+++): stronger fluorescent intensity; settings: for Anti-Rib / Anti-Sm / Anti-ssA / Anti-ssB: intragastric; for ENA polypeptide antibodies found positive (FIG. 1): treated 14 days
Description: (§1) The back of mice was shaved and acutely exposed to Ultraviolet of 2 h/d*3 d, with a distance of 30 cm. After exposure to UV, 2.5 mg/kg of LPS was administrated once by ip, and after 24 h, the model was successfully established; the mice in the normal control group received normal saline via ip. 24 h after injection of LPS (ip), medicines were given to the model mice by intragastric administration. Chlorogenic acid test groups received high, middle, and low doses of medicines, by intragastric administration at a respective dosage of 10 mg/kg*d, 20 mg/kg*d, and 40 mg/kg*d. The positive control group A received 2 mg/kg*d of artesunate by stomach perfusion, while the positive control group B received 1 mg/kg*d of prednisone by stomach perfusion. Mice in the model and normal control group all received 0.4 ml/mouse normal saline by gavage. After 15 days of administration, animals in each group were taken blood by separating eyeballs on days 14, 21, 28, and after cultured in water bath at 37° C. for 1 h, the blood sample was centrifugated at 2000 r/min for 5 min, to draw serum for use. On day 21, after blood collection, animals were sacrificed by dislocation, followed by collection of liver and kidney, and they were placed in fixative solutions of electron microscope and light microscrope, respectively. Serum of mice was diluted at 1:100 with special buffer solution of Shenzhen Hengjia, and then 200 μL of diluted serum was respectively added to the reactive tank with corresponding number, cultured in the incubator at 37° C. for 30 min, and washed with the buffer solution four times, 2 min for each time; 200 μL of diluted biotin goat anti-mouse IgG (1:100) was added, cultured in the incubator at 37° C. for 30 min, and then washed with the buffer solution four times, 2 min for each time; 100 μL of diluted HRP-avidin (1:100) was added, cultured in the incubator at 37° C. for 30 min, and then washed as mentioned-above; reactive solutions A and B were added till appearance of positive bands, then washed with the buffer solution. Compared with the standard bands of ENA polypeptide antibody spectrum in the same kit, if the positive bands appeared at 28/29,13.5 ku polypeptide; 15,16.5,38 kupolypeptide; 52 kupolypeptide and 47/48,45 kupolypeptide, that can be determined as anti-Sm, anti-Rib, anti-ssA, and anti-ssB positive antibody. Serum was diluted with PBS at 1:40, then 20-30 μL of diluted serum was dropped into the scrobiculus of HEp-2 cell sheets, each cell sheet for each group. In the process of dropping serum, it should be noted that the surface of cell sheet can not be touched. After addition of serum, cell sheet was placed in wet box and kept for 30 min at room temperature (25° C.). After 30 min, the cell sheet was taken out, and serum was carefully washed out with PBS, then carefully washed twice with PBS, 5 min for each time; after washing, the remained PBS was removed by special absorbent paper of […] company (In this process, it should be noted that becoming dry of cell substrates will affect the results). 20-30 μL of diluted (PBS, 1:100) FITC goat anti-mouse IgG was added by dropping, and then incubated in wet box at room temperature for 30 min. After washing with PBS, steps were same to above. The remained PBS was removed by absorbent paper, and 1-2 drops of fluorescent mounting media were added to the cell sheet. The cover glass was mounted, observed under Olympus BH-2 universal microscope, and then photographed.

[2] = test system: lupus erythematosus; assay: Screening medicines for treatment of lupus erythematosus; settings: screening of extracts and potency constituents; no method given
[3] = test system: ANA; assay: Serologic detection of ANA by immunofluorescence on HEp-2 cell sheets, serum of UV + LPS lupus model mice; type: in vivo, BALB/c mice; design: key: (+): positive; (−): negative; (++++): intense fluorescence; (+++): stronger fluorescence; (++): weeker fluorescence; settings: intragastric
Description: as §1

[4] = day 14, chlorogenic acid high dose
[5] = day 14, chlorogenic acid low dose
[6] = day 14, chlorogenic acid middle dose
[7] = day 21, chlorogenic acid high dose
[8] = day 21, chlorogenic acid low dose
[9] = day 21, chlorogenic acid middle dose
[10] = day 28, chlorogenic acid high dose
[11] = day 28, chlorogenic acid low dose
[12] = day 28, chlorogenic acid middle dose

`O=C(/C=C/c1ccc(O)c(O)c1)O[C@@H]1C[C@](O)(C(=O)O)C[C@@H](O)[C@H]1O` [Chlorogenic acid, 3-O-caffeoylquinic acid] was tested, and the Anti-Rib [1, 4] was “(+)”, the Anti-Sm [1, 4] was “(+)” and the Anti-ssA [1, 4] was “(+)”. For the same compound, the Anti-ssB [1, 4] was “(+)”, the Anti-Rib [1, 5] was “(+)” and the Anti-Sm [1, 5] was “(+)”. For the same compound, the Anti-ssA [1, 5] was “(+)”, the Anti-ssB [1, 5] was “(+)” and the Anti-Rib [1, 6] was “(+)”. For the same compound, the Anti-Sm [1, 6] was “(+)”, the Anti-ssA [1, 6] was “(+)” and the Anti-ssB [1, 6] was “(+)”. The Anti-Rib [1, 7] was “(+)”, the Anti-Sm [1, 7] was “(+)” and the Anti-ssA [1, 7] was “(+)”. For the same compound, the Anti-ssB [1, 7] was “(+)”, the Anti-Rib [1, 8] was “(+)” and the Anti-Sm [1, 8] was “(+)”. The Anti-ssA [1, 8] was “(+)”, the Anti-ssB [1, 8] was “(+)” and the Anti-Rib [1, 9] was “(+)”. The Anti-Sm [1, 9] was “(+)”, the Anti-ssA [1, 9] was “(+)” and the Anti-ssB [1, 9] was “(+)”. The Anti-Rib [1, 10] was “(−)”, the Anti-Sm [1, 10] was “(+)” and the Anti-ssA [1, 10] was “(−)”. The Anti-ssB [1, 10] was “(−)”, the Anti-Rib [1, 11] was “(+)” and the Anti-Sm [1, 11] was “(+)”. The Anti-ssA [1, 11] was “(+)”, the Anti-ssB [1, 11] was “(+)” and the Anti-Rib [1, 12] was “(−)”. The Anti-Sm [1, 12] was “(+)”, the Anti-ssA [1, 12] was “(+)” and the Anti-ssB [1, 12] was “(+)”. The “ENA polypeptide antibodies found positive (FIG. 1)” value ([1]; high dose of chlorogenic acid) was “anti-Sm, anti-ssA and anti-ssB bodies are positive”, the “ENA polypeptide antibodies found positive (FIG. 1)” value ([1]; low dose of chlorogenic acid) was “anti-Sm, anti-ssA and anti-ssB bodies are positive” and the “ENA polypeptide antibodies found positive (FIG. 1)” value ([1]; middle dose of chlorogenic acid) was “anti-Sm, anti-Rib, anti-ssA and anti-ssB bodies are positive”. For the same compound, the “inhibition on lupus erythematosus” value [2] was “more obvious inhibition”, the ANA [3, 7] was “(++)” and the ANA [3, 8] was “(+++)”. The ANA [3, 9] was “(++)”, the ANA [3, 10] was “(++)” and the ANA [3, 11] was “(+++)”. For the same compound, the ANA [3, 12] was “(++)”.

— US10058525B2, “Application of chlorogenic acid in preparing medicines for treating lupus erythematosus” (SICHUAN JIUZHANG BIOLOGICAL SCIENCE AND TECHNOLOGY CO., LTD., priority 2015, dated 2018)
